Two molecules from patent US11865103B2, “Methods of treating disorders associated with glycosylation defective proteins” (CASE WESTERN RESERVE UNIVERSITY, priority 2016, dated 2024) can be followed below.

Common to all, as to type: in vivo, zebrafish
Data set [1] deals with hCLRN1^N48K-YFP. Nature of the data set: Hair bundle localization of hCLRN1^N48K-YFP (YFP intensity) in neuromast hair cells of live larvae treated with SERCA inhibitors. The arrangement: key: “—” = The YFP intensity in the bundle is similar to untreated control.; “+” = The YFP intensity in the bundle is higher compared to untreated control. The following applies: ART 0.25 μM.

For data set [2], the system named is hCLRN1^N48K-YFP; clrn1^+/+ larvae. Nature of the data set: Larval survival/lethality by TG or ART dose and treatment duration. Further details: key: ‘S’ =Surviving; ‘L’ = Lethal; ‘S/L’ Larvae surviving with apoptosis/necrosis of hair cells. As to the method: Thapsigargin (TG, 1 mg, Sigma-Aldrich, #T9033) stock in 100% DMSO was diluted in E3 medium to make the required final concentration of the drug. Five different concentrations that were earlier reported to induce ER stress and are non-toxic or lower lethal dose (LD50) in the zebrafish (0.1, 0.5, 1.0, 2.5, 5 μM concentrations) were used in this study. A total of 25 larvae per dosage and treatment duration from the genotypes hCLRN1^N48K-YFP; clrn1^+/+ and hCLRN1-YFP; clrn1^+/+, no older than 72 hours post fertilization (hpf) at the start of the experiment, were placed in a well of 12-well uncoated culture plate (BD Falcon, Canaan, CT). For ER stress induction, larvae were incubated in different dosage of TG from 1 hr to overnight at 28.5° C., followed by three times wash with E3 medium at 28.5° C. (Table 2) and hair cells from the hCLRN1^N48K-YFP; clrn1^+/+ and hCLRN1-YFP; clrn1^+/+ lines were examined for the respective protein distribution pattern in the hair cell bundle and the cell body. Live confocal images of ‘O’ and ‘ML1’ neuromasts per larvae were capture using Leica SP2 confocal microscope with 40× oil immersion objective. Unadjusted 1 micron middle section images of four hair bundles per ML1 neuromast of larvae from TG treated and untreated groups were analyzed using Image J software version v. 1.48 (FIG. 4). The hair bundle trafficked amount of hCLRN1^N48K protein corresponds to the change in YFP intensity in the hair bundle in the TG treated larvae. Quantification of YFP fluorescence intensity was carried out as described in the previous experiment for unconventional trafficking of hCLRN1^N48K-YFP by hGRASP55 cargos. […] Student's t-test was used to confirm the observed changes in the YFP intensity in the hair bundles of TG treatment compared to untreated hCLRN1^N48K-YFP; clrn1^+/+ larvae, is significant (FIG. 4J).
Arthemisinin (ART, 100 mg, Sigma-Aldrich, #361593) in 100% DMSO was diluted in E3 medium to make the final concentration. Five different concentrations within the range of reported ER stress inducing level in the zebrafish (0.1, 0.25, 0.4, 0.5, and 1 μM concentrations) were used in this study. A total of 25 larvae, no older than 72 hpf at the start of the experiment, were placed in a well of 12-well uncoated culture plate (BD 35 Falcon, Canaan, CT). For ER stress induction, larvae were exposed in different dosage of ART for different duration at 28.5° C. (Table 3) and washed three times with E3 medium, and hair cells from the hCLRN1-YFP; clrn1^+/+ larvae and hCLRN1^N48K-YFP; clrn1^+/+ larvae were examined for the respective protein distribution pattern in the hair cell bundle and the cell body. Live confocal Z-stack images of otic ‘O’ and middle ‘ML’ neuromasts per larvae of hCLRN1-YFP; clrn1^+/+ larvae and hCLRN1^N48K-YFP; clrn1^+/+ genotypes from the untreated group in the E3 medium, 0.01% DMSO treatment group and ART treatment group were capture using Leica SP2 confocal microscope at 40× oil immersion objective. Hair cells from 2 otic (0) and 2 middle (ML) neuromasts per larvae were examined for the change in YFP intensity in the hair bundle and cell body. From the captured confocal images of these neuromast hair cells, unadjusted 1 micron middle section images of 4 mature hair bundles from ML1 neuromast per larvae were considered for the YFP intensity quantification in unadjusted ROI covering the middle section of each hair bundles using the imageJ software. […] The hair bundle trafficked amount of hCLRN1^N48K protein corresponds to the change in YFP intensity in the hair bundle in the ART treated larvae. Quantification of YFP fluorescence intensity was carried out as described in the previous experiment for unconventional trafficking of hCLRN1^N48K-YFP by hGRASP55 cargos. Student's t-test was used to confirm the observed changes in the YFP intensity in the hair bundles of ART treatment compared to untreated and TG treated hCLRN1^N48K-YFP; clrn1^+/+ larvae, is significant (FIG. 4J).

Data set [3] has the same test system. Described as above. The following applies: TG dosages higher than 1 μM or longer treatment duration. How it is done: Thapsigargin (TG, 1 mg, Sigma-Aldrich, #T9033) stock in 100% DMSO was diluted in E3 medium to make the required final concentration of the drug. Five different concentrations that were earlier reported to induce ER stress and are non-toxic or lower lethal dose (LD50) in the zebrafish (0.1, 0.5, 1.0, 2.5, 5 μM concentrations) were used in this study. A total of 25 larvae per dosage and treatment duration from the genotypes hCLRN1^N48K-YFP; clrn1^+/+ and hCLRN1-YFP; clrn1^+/+, no older than 72 hours post fertilization (hpf) at the start of the experiment, were placed in a well of 12-well uncoated culture plate (BD Falcon, Canaan, CT). […] Unadjusted 1 micron middle section images of four hair bundles per ML1 neuromast of larvae from TG treated and untreated groups were analyzed using Image J software version v. […] Quantification of YFP fluorescence intensity was carried out as described in the previous experiment for unconventional trafficking of hCLRN1^N48K-YFP by hGRASP55 cargos. […]
Arthemisinin (ART, 100 mg, Sigma-Aldrich, #361593) in 100% DMSO was diluted in E3 medium to make the final concentration. […] Quantification of YFP fluorescence intensity was carried out as described in the previous experiment for unconventional trafficking of hCLRN1^N48K-YFP by hGRASP55 cargos. […]

`C[C@@H]1CC[C@H]2[C@@H](C)C(=O)O[C@@H]3O[C@@]4(C)CC[C@@H]1[C@]32OO4` [ART, Artemisinin]: the “YFP intensity in the bundle compared to untreated control” value in data set [1] (exposure 2 h), in data set [1] (exposure 4 h) and in data set [1] (exposure 8 h) was “—” each time. Moreover, the Larvae survival entry in data set [2] (ART 0.1 μM, exposure 1 h) is given as “S”; in data set [2] (ART 0.1 μM, exposure 2 h), “S”; in data set [2] (ART 0.1 μM, exposure 4 h), “S”; in data set [2] (ART 0.1 μM, exposure 6 h), “S”; in data set [2] (ART 0.1 μM, exposure 8 h) it was “S”; in data set [2] (ART 0.1 μM, exposure 10 h) it was “S”. The Larvae survival entry is listed as “S” in data set [2] (ART 0.1 μM, post-exposure recovery time 10 h); “S” in data set [2] (ART 0.1 μM, post-exposure recovery time 24 h); “S” in data set [2] (ART 0.1 μM, post-exposure recovery time 48 h); “S” in data set [2] (ART 0.25 μM, exposure 1 h); “S” in data set [2] (ART 0.25 μM, exposure 2 h); “S” in data set [2] (ART 0.25 μM, exposure 4 h). For the same molecule, the Larvae survival result in data set [2] (ART 0.25 μM, exposure 6 h) is listed as “S”; in data set [2] (ART 0.25 μM, exposure 8 h), “S”; in data set [2] (ART 0.25 μM, exposure 10 h) it was “S”; in data set [2] (ART 0.25 μM, post-exposure recovery time 10 h) it was “S”; in data set [2] (ART 0.25 μM, post-exposure recovery time 24 h), “S”; in data set [2] (ART 0.25 μM, post-exposure recovery time 48 h), “S”. For the same molecule, the Larvae survival result in data set [2] (ART 0.4 μM, 4 hours exposure group, post-exposure recovery time 10 h) is “S”; in data set [2] (ART 0.4 μM, 4 hours exposure group, post-exposure recovery time 24 h) it was “S”; in data set [2] (ART 0.4 μM, 4 hours exposure group, post-exposure recovery time 48 h) it was “S”; in data set [2] (ART 0.4 μM, exposure 1 h), “S”; in data set [2] (ART 0.4 μM, exposure 2 h), “S”; in data set [2] (ART 0.4 μM, exposure 4 h), “S”. Also, the Larvae survival entry in data set [2] (ART 0.4 μM, exposure 6 h) is “S/L”.

With `C/C=C(/C)C(=O)O[C@H]1C(C)=C2[C@H]([C@@H]1OC(=O)CCCCCCC)[C@@](C)(OC(C)=O)C[C@H](OC(=O)CCC)[C@@]1(O)[C@H]2OC(=O)[C@@]1(C)O` [TG, Thapsigargin], the Lethality to larvae entry in data set [3] is on record as “lethal”.
